Experimental data as given in publication PMC9317902, “Multi-Targeting Approach in Glioblastoma Using Computer-Assisted Drug Discovery Tools to Overcome the Blood–Brain Barrier and Target EGFR/PI3Kp110β Signaling” (Cancers, 2022).
Like-named read-outs stand apart in the source and are kept apart here.

Assays:
[1] = test system: HBMEC; assay: HBMEC integrity and morphology (β-catenin, F-actin immunofluorescence); format: cell-based, human
Text: (§1) HBMEC in coverslips were stained for: the junctional protein β-catenin (1:100, Thermo Fisher Scientific, Waltham, MA, USA, #71-2700), the cytoskeleton protein F-actin (1:1000, Phalloidin dye, Abcam, Cambridge, UK, #ab17675), and the efflux transporter P-gp (1:50, Santa Cruz Biotechnology, Dallas, TX, USA, #sc-390883). HBMEC seeded on polyester inserts for transport assays were also stained for the junctional protein zonula occludens-1 (ZO-1, 1:200, Thermo Fisher Scientific, Waltham, MA, USA, #40-2200) and the cytoskeleton protein vimentin (1:100, Thermo Fisher Scientific, Waltham, MA, USA, #MA3745).
(§2) Incubations with primary antibodies occurred overnight at 4 °C. Incubation with the secondary antibodies Alexa Fluor 555 (1:500, Thermo Fisher Scientific, Waltham, MA, USA, #A21428) or Alexa Fluor 488 (1:500, Thermo Fisher Scientific, Waltham, MA, USA, #A11001) lasted for 1 h at room temperature. Nuclei were counterstained with Hoechst 33342 dye (1:1000, Thermo Fisher Scientific, Waltham, MA, USA, #33342) for 10 min. Before mounting with DPX (Merck Millipore, Burlington, MA, USA), cells were dehydrated with methanol. Negative controls were performed.
(§3) All acquired images were treated in ImageJ (NIH, Bethesda, MD, USA). Assessment of nuclear morphology following Hoechst staining was evaluated. For fluorescence intensity measures, the regions of interest were selected in Image J, and corresponding integrated densities were obtained. The representative 3D plots for BBB integrity were obtained by merged pixel intensity using the surface plot tool of Image J. For F-actin stress fibers analysis, the plot profile tool of Image J was used considering each defined cell-ferret diameter.
For analysis of β-catenin internalization and HBMEC morphological changes, Icy software was used. At least 5 cells per field were delineated and the conveyed values of membrane/interior pixels and roundness (area/perimeter^2) were exported and analyzed. Taking advantage of membrane staining (β-catenin), the BBB’s integrity was also analyzed by quantifying the total area of intercellular gaps in the HBMEC monolayer.

[2] = test system: U87MG-wtEGFR cells; assay: MTT cell viability, U87MG-wtEGFR; format: cell-based; conditions: 24 h; for cell death: screening 0.1-100 µM
Experimental: To analyze molecules’ cytotoxicity, U87MG and U87MG-wtEGFR cells were seeded into 96-well plates at a density of 2.5 × 10^4 cells/mL, and after 48 h were incubated with 0.1, 1, 10, or 100 µM of each molecule diluted in (non-supplemented) cell medium for 24 h. […] Dose–response data were also obtained for treatment with triton X-100 (positive control) and DMSO (vehicle; negative control). The cytotoxicity of selected molecules from initial screening was tested in HBMEC at 100 µM for 24 h. HBMEC were seeded at a density of 8 × 10^4 cell/mL in 96-well plates and after 48 h were incubated with the molecules.
(§4) In screening assays, cell viability was evaluated using thiazolyl blue tetrazolium bromide (MTT). Briefly, a culture medium containing 0.5 mg/mL of MTT was added to each well for 90 min at 37 °C. The supernatant was removed and the formed formazan crystals in viable cells were solubilized with 0.04 N HCl in isopropanol solution.

[3] = test system: U87MG cells; assay: Apoptotic cells by nuclear morphology (Hoechst) in U87MG; format: cell-based; conditions: for apoptotic cells: at EC50, 9 h
[4] = test system: HBMEC; assay: MTT cell viability, HBMEC; format: cell-based, human; conditions: 24 h, 100 µM
Experimental: (§5) To analyze molecules’ cytotoxicity, U87MG and U87MG-wtEGFR cells were seeded into 96-well plates at a density of 2.5 × 10^4 cells/mL, and after 48 h were incubated with 0.1, 1, 10, or 100 µM of each molecule diluted in (non-supplemented) cell medium for 24 h. The half-maximal effective concentration (EC50) of the most cytotoxic compounds was quantified. Dose–response data were also obtained for treatment with triton X-100 (positive control) and DMSO (vehicle; negative control). The cytotoxicity of selected molecules from initial screening was tested in HBMEC at 100 µM for 24 h. HBMEC were seeded at a density of 8 × 10^4 cell/mL in 96-well plates and after 48 h were incubated with the molecules.
as §4, with “solution. The absorbance was recorded using a microplate reader (Zenyth 3100, Anthos Labtec Instruments, Salzburg, Austria) at 595 nm, and values of cell viability were calculated as percentage of negative control.” for “solution.”

[5] = test system: U87MG cells; assay: MTT cell viability, U87MG; format: cell-based; conditions: 24 h; for EC50 / cell death: U87MG; for cell death: screening 0.1-100 µM
Experimental: as §5
as §4, with “solution. The absorbance was recorded using a microplate reader (Zenyth 3100, Anthos Labtec Instruments, Salzburg, Austria) at 595 nm, and values of cell viability were calculated as percentage of negative control.” for “solution.”

[6] = test system: phospho-EGFR; assay: Immunofluorescence of phospho-EGFR in U87MG cells; format: cell-based
[7] = test system: phospho-AKT; assay: Immunofluorescence of phospho-AKT in U87MG cells; format: cell-based; conditions: for inhibition of phospho-AKT expression: at EC50, after 6 h exposure
[8] = test system: P-gp; assay: P-gp expression in HBMEC (immunofluorescence); format: cell-based, human; conditions: U87MG EC50, 9 h
Text: as §1, §2, §3

[9] = test system: U87MG cells; assay: BBB-GB co-culture model HBMEC:U87MG; format: cell-based
Experimental: To assess molecule cytotoxicity in GB cells after crossing the HBMEC monolayer, a co-culture BBB-GB model was used. HBMEC were seeded in the Transwell apparatus as described above. After 5 days, U87MG or U87MG-wtEGFR cells were seeded (1.2 × 10^5 cell/mL) in the lower chamber. After 3 days of co-culture, upper chamber content was replaced with fresh medium (control) or medium containing each molecule at respective EC50. After 2 h, inserts were removed and tested for barrier integrity by TEER readings and immunofluorescence analysis, whereas GB cells were maintained in culture for 24 h to further assess cell viability by MTT assay.

[10] = test system: U87MG cells; assay: Abluminal conditioned medium of HBMEC on U87MG; format: cell-based; conditions: 24 h, MTT
Experimental: To evaluate disruptive effects in HBMEC monolayer when co-cultured, a transport assay using HBMEC monoculture was conducted. After 2 h of molecules incubation, the abluminal conditioned media were collected and used to supply U87MG or U87MG-wtEGFR cells for 24 h, which grew to confluence for 3 days. HBMEC were also tested for barrier integrity, and MTT assays were performed at the end of incubation.

[11] = test system: HBMEC monolayer; assay: Transwell in vitro BBB model: transport (UPLC-MS/MS) and barrier integrity; format: in vitro ADME, human
Experimental: To evaluate molecules’ BBB transport, a well-validated two-chamber BBB model, relying on the use of a microporous semipermeable membrane (Transwell insert) that separates the upper (luminal: “blood side”) and the lower (abluminal: “brain side”) chambers, was used as usual in our team. Briefly, HBMEC were seeded on polyester inserts (0.4 μm, Corning Costar Corp., New York, NY, USA) at a density of 8 × 10^4 cell/insert and treated after 8 days in culture. Inserts were coated with rat-tail collagen-I (BD Biosciences, Erembodegem, Aalst, Belgium) before seeding. Transport assays were conducted in Hank’s Balanced Salt Solution (HBSS, Gibco, Waltham, MA, USA) with calcium and magnesium, supplemented with 0.1% FBS.
Samples from upper and lower chambers were deproteinized using acetonitrile (ACN) (1:3) in ice-cold conditions, centrifuged at 15,300× g for 5 min at 4 °C and the respective supernatants were frozen until subsequent analysis.
The identification and quantification of molecules of interest were achieved by ultra-performance liquid chromatography–tandem mass spectrometry (UPLC-MS/MS) analysis using a triple quadrupole and Masslynx 4.1 software (Acquity TQ Waters). The separation of analytes was performed using a reversed-phase column Purospher STAR, RP-18 endcapped, 2 µm; Hibar HR 50-2.1 (Merck, Rahway, NJ, USA) at 35 °C, and a linear gradient (0.1% formic acid (A): ACN with 0.1% formic acid (B)) at a flow rate of 0.30 mL/min. The detection of analytes was based on electrospray ionization in the positive mode (ESI+) and acquisition in multiple reaction monitoring mode (MRM) at the following settings: ESI capillary voltage 3.0 kV, cone voltage 30 V, extractor voltage 1 V, RF lens voltage 0.1 V, desolvation gas flow 750 L/h at 350 °C, cone gas flow 50 L/h at 120 °C. Calibration curves were based on external standards using at least 8-points within the intended range, injected as duplicates. Analytes were quantified with a maximum deviation of 15% between the MRM1/MRM2 ratio. Each sample was injected in triplicate. Endothelial transport was calculated based on the ratio of lower compartment concentration and the sum of upper and lower compartments concentrations.
HBMEC monolayer integrity was ensured during BBB transport assays by TEER measurements and sodium-fluorescein paracellular permeability assessment, as previously described. TEER readings were performed using an EndOhm^TM chamber coupled to an EVOMX resistance meter (World Precision Instruments, Inc., Sarasota, FL, USA) and sodium fluorescein levels were measured using a Hitachi F-2000 fluorescence spectrophotometer.

[12] = test system: patient-derived cell lines; set-up: method as in PMID 34794398; conditions: 72 h, read-out: median IC50; cited from earlier work
[13] = several cell-based studies; cited from earlier work
[14] = test system: U87 cells; set-up: method as in PMID 34794398; conditions: depending on the incubation time; cited from earlier work
[15] = U87MG-wtEGFR, MTT, read-out: EC50

C=CC(=O)Nc1cc2c(Nc3ccc(F)c(Cl)c3)ncnc2cc1OCCCN1CCOCC1 [Mol 25, canertinib, reference compound]
HBMEC detachment ([1]; human, 9 h): 100% | EC50 [2]: 11.3 ± 2.15 µM | cell death ([2]; U87MG-wtEGFR, MTT): ≥ 50% | apoptotic cells [3]: ~85% | impairment of HBMEC cell viability ([4]; human): ~100% | viability at 100 µM ([5]; Homo sapiens, U-87 MG, 100 µM, GB cell line not given, read-out: viable cells): ~0% | EC50 ([5]; Homo sapiens, U-87 MG): 16.3 ± 2.26 µM | cell death [5]: ≥ 50% | reduction of mean intensity of phosphorylated EGFR ([6]; at EC50, 9 h): 92.6% | inhibition of phospho-EGFR expression ([6]; at EC50, after 6 h exposure): > 50% | inhibition of phospho-AKT expression [7]: > 50%

CCCCN1CCCc2cc(CN(CCN3CCOCC3)C(=S)Nc3cc(F)cc(F)c3)ccc21 [Mol 19]
HBMEC shape (roundness) [1]: no significant changes in HBMEC shape | β-catenin expression and location [1]: absence of changes in β-catenin expression and location | EC50 [2, 15]: 27.6 ± 5.91 µM | cell death ([2]; U87MG-wtEGFR, MTT): ≥ 50% | apoptotic cells [3]: about 35% | P-gp expression (mean intensity) in HBMEC [8]: No significant changes in P-gp expression | TEER of HBMEC ([9]; 2 h at EC50, mono- or co-culture system): TEER readings were not decreased | U87MG cell viability in co-culture system ([9]; added to upper chamber at EC50 for 2 h, MTT after 24 h): impaired | U87MG cell viability with basolateral conditioned medium of HBMEC [10]: none of the molecules induced a statistically significant difference | HBMEC permeability to sodium fluorescein (Pe) ([11]; U87MG EC50): no statistical differences between treated cells and control | TEER of HBMEC monolayer ([11]; U87MG EC50, 30 min): None of the molecules markedly changed the TEER | endothelial transport efficiency, 30 vs. 120 min ([11]; UPLC-MS/MS): transported across the HBMEC monolayer in a time-dependent manner | transport across the BBB endothelium ([11]; UPLC-MS/MS, 30 and 120 min): could be transported across the BBB endothelium | EC50 ([5]; Homo sapiens, U-87 MG): 104 ± 14.9 µM | cell death [5]: ≥ 50% | phosphorylated AKT expression compared with control ([7]; at EC50, 1-9 h): decreased expression

Cn1nnc2c(C(N)=O)ncn2c1=O [TMZ, temozolomide]
IC50 [12]: 800 µM | doses at which more than 50% cytotoxicity was seen [13]: up to 4000 µM | IC50 [14]: 124 to 230 µM

Brc1ccc(Nc2ncnc3ccccc23)cc1 [Mol 17]
F-actin stress fibers per cell ([1]; human, 9 h): highly increased the number of stress fibers/cell | HBMEC shape (roundness) ([1]; human, 9 h): increased cell roundness | disrupted barrier integrity (endothelial gaps), of control ([1]; human, 9 h): 78% | β-catenin expression and location ([1]; human, 9 h): irregular and discontinuous appearance | EC50 [2, 15]: 50.4 ± 5.21 µM | cell death ([2]; U87MG-wtEGFR, MTT): ≥ 50% | apoptotic cells [3]: ~40% | P-gp expression (mean intensity) in HBMEC [8]: significant increase in P-gp mean intensity | impairment of HBMEC cell viability ([4]; human): about 65% | EC50 ([5]; Homo sapiens, U-87 MG): 129 ± 14.5 µM | cell death [5]: ≥ 50% | phospho-EGFR expression, of that observed in control ([6]; at EC50, 9 h): about 30%

C=CC(=O)Nc1ccc2ncnc(Nc3cccc(Br)c3)c2c1 [Mol 27]
F-actin stress fibers per cell ([1]; HBMEC, U87MG EC50, 9 h): highly increased the number of stress fibers/cell | HBMEC shape (roundness) ([1]; HBMEC, U87MG EC50, 9 h): increased cell roundness | β-catenin expression and location ([1]; HBMEC, U87MG EC50, 9 h): irregular and discontinuous appearance | disrupted barrier integrity (endothelial gaps), of control ([1]; HBMEC, U87MG EC50, 9 h, β-catenin staining): 82% | apoptotic cell death ([3]; at EC50, 6 h): 12.8% | apoptotic cells [3]: 31.9% | P-gp expression (mean intensity) in HBMEC [8]: significant increase in P-gp mean intensity | impairment of HBMEC cell viability ([4]; MTT): ~58% | EC50 ([5]; Homo sapiens, U-87 MG): 22.7 ± 2.22 µM | cell death [5]: ≥ 50% | inhibition of phospho-AKT expression [7]: > 50%
